For test [1], the target named is T1, His6-AspH315–758 (human aspartate/asparagine-β-hydroxylase, AspH) (Homo sapiens, UniProt Q12797).
T1 construct: N-Terminally His6-tagged human AspH315–758 (His6-AspH315–758) was produced in E. coli BL21 (DE3) cells; made in house; host or cells: E. coli BL21 (DE3), pET-28a(+) vector
T1 sequence (Q12797 315-758): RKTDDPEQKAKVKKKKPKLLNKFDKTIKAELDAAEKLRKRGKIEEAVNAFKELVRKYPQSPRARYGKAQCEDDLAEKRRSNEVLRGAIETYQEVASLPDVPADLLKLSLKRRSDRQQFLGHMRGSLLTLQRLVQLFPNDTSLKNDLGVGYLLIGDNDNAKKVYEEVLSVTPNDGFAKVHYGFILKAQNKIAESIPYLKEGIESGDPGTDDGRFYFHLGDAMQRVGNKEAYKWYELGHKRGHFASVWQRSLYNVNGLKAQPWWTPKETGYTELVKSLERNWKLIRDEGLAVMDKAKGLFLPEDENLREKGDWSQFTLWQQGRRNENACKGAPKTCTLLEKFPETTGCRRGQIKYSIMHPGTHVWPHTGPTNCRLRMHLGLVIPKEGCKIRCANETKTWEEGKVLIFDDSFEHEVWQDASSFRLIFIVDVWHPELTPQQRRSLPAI
As to the kind of experiment: SPE-MS AspH inhibition assay (LOPAC screen at fixed 20 μM and IC50 dose-response), hydroxylation of cyclic peptide hFX-CP101–119. It counts as biochemical. The note with it: for IC50: read-out: IC50 metal ion, AspH.

The next test deals with PHD2. The note with it: read-out: IC50 metal ion, PHD2, cited from earlier work.
The target in a further test is FIH. The note with it: read-out: IC50 metal ion, FIH [μM] (Ki values are shown), cited from earlier work.
The next test deals with KDM4A. The note with it: read-out: IC50 metal ion, KDM4A, cited from earlier work.
A further test deals with KDM4E. The note with it: read-out: IC50 metal ion, KDM4E, cited from earlier work.
The next test concerns TauD. The note with it: read-out: IC50 metal ion, TauD; cited from earlier work.
The mark [2] stands for this setting: 50 nM AspH, 2.0 μM Fe(II), Zn(OAc)2, NiSO4, CoCl2, MnCl2, CaCl2 as metal sources, n = 2, mean ± SD.
Where [3] appears, read: 5 μM Fe(II), Ki values are shown.

The term IC50 denotes the midpoint of a concentration-inhibition curve. In general, Ki refers to a dissociation constant, usually derived from enzyme kinetics or from competition with a known ligand.

“And” between values parts separate entries of the source, which are not always exact repeats. Identical values can stand only once. Like-named read-outs stand apart in the source and are kept apart here.

For `[Cl][Mn][Cl]` [Mn(II), MnCl2], the IC50 in test [1] (setting [2]) is 5.06 ± 1.02 µM; in the test with PHD2 (2 μM PHD2 and 20 μM Fe(II)) it was 21 µM; with KDM4A (2 μM KDM4 and 10 μM Fe(II)), 101 µM; in the test on KDM4E (2 μM KDM4 and 10 μM Fe(II)), 224 µM. The “Reduction of AspH inhibition compared to Zn(II)” value in test [1] (ratio of IC50 values against AspH, Table 2) was “approximately 100 fold”. Moreover, the Ki at FIH (setting [3]) is 10 ± 1 µM.

Take `O=S(=O)([O-])[O-].[Ni+2]` [Ni(II), NiSO4]: the IC50 in test [1] is 0.17 ± 0.08 µM; in the test with PHD2, 185 µM; in the test with TauD, 0.6 to 1 µM; in the test with KDM4A, 9.4 µM; with KDM4E, 15.6 µM. The Ki on FIH was 4 ± 1 µM.

Regarding `CC(=O)[O-].CC(=O)[O-].[Zn+2]` [Zn(II), Zn(OAc)2], the IC50 in test [1] (setting [2]) is ~0.05 µM and 0.05 µM; in the test with PHD2 (2 μM PHD2 and 20 μM Fe(II)), 9.3 µM; in the test with KDM4A (2 μM KDM4 and 10 μM Fe(II)), 7.8 µM; in the test with KDM4E (2 μM KDM4 and 10 μM Fe(II)), 13 µM. Further, the Ki at FIH (setting [3]) is 0.5 ± 0.1 µM.

Regarding CoCl2 [Co(II)], the IC50 in test [1] was 0.39 ± 0.13 µM; in the test on PHD2, 48.3 µM; with TauD, 1 to 3.5 µM; in the test with KDM4A it was 5.7 µM; with KDM4E it was 9.4 µM. Also, at FIH, the Ki was 1 ± 0.4 µM.
